From patent US8664276B2, “Stilbene analogs and methods of treating cancer” (University of Kentucky Research Foundation, priority 2011, dated 2014)

What was measured:
Solubility = assay type: physicochemical
[1] = test system: Wnt target genes, Axin2 and c-Myc; test: Western blot of Wnt target proteins in LS174 CRC cells; assay type: cell-based
Experimental: Western blot. Western blots were performed using the following antibodies: β-catenin (Sigma, C2206), c-Myc (Epitomics, 1472-1), Axin2 (Cell Signaling, 2151), β-Actin (Sigma, A1978), TCF4 (Epitomics, 2114-1) and pygopus2 (Santa Cruz, sc-74878), Cyclin D1 (Cell signaling, 2926).
(§1) Cyclin B1 levels were decreased, whereas p21^WAF1/CIP1 levels increased, consistent with the fact that p21^WAF1/CIP1 expression is repressed by c-Myc. β-catenin levels were not affected by resveratrol. Next, the mRNA levels of β-catenin target genes were analyzed using RT-PCR. Expression of survivin, Lgr5, CD44, and c-Myc were decreased in resveratrol-treated cells.
A panel of stilbene analogs was designed and synthesized (FIGS. 2, 3, 5A and 6A). […] However, the solubility of 4d was poor and it was not effective below 10 μM concentrations (data not shown). To improve its solubility and activity, compound 4d was modified with 2′-fluoro 4e, 3′-fluoro 4f and 4′-fluoro 4g substituents (FIG. 5D). Both compounds 4e and 4f had good activity at 10 μM, (E)-4-(2-fluorostyryl)-N,N-dimethylaniline.
(§2) Western blot and cell proliferation assay. The activity of fluorinated N,N-dialkylaminostilbenes (FIDAS or FIDAS agents) on Wnt signaling activity in cancer cells were analyzed by Western blot with antibodies against Wnt target genes, such as c-Myc, Axin2. The effects of FlDAS agents on cancer cell growth were analyzed using Cell Viability Analyzer (Beckman Coulter, Vi-Cell XR). These assays have been described previously (see Zhang et al., J. of Med. Chem. 54, 1288-1297 (2011)).

HT29 xenografted tumors = test: HT29 tumor xenograft in nude mice, oral gavage; assay type: in vivo; conditions: HT29, 20 mg/kg in PEG400 by gavage
Experimental: Tumor xenograft in nude mice. LS174 or HT29 colon cancer cells (2×10^6) were injected subcutaneously into both flanks of 6-8 week C57BL/6J athymic nude mice as described in Zhang et al., Mol Cell Biol 2006, 26, 2055-2064. Compound 4r or 4dd was dissolved in corn oil or PEG400. The mice were treated with 20 mg/kg/day of 4r by ip injection or gavage (50 μl/mouse). Control mice were treated with same volume of corn oil or PEG400. The body weight and tumor growth were analyzed twice weekly for one month. Tumor size was measured using digital caliper. The tumor volume was calculated by the formula: V=½LW^2 (mm^3).
Xenografted nude mice were developed according to the protocol described above and in Zhang et al., J. of Med. Chem. 54, 1288-1297 (2011)). Briefly, HT29 cells were injected subcutaneously into the flanks of nude mice. The mice were then treated with 20 mg/kg compound 4dd dissolved in PEG400 by gavage. As described in Example 7, an IP injection of compound 4r dissolved in corn oil inhibited xenograft tumor growth. Here, it was also shown that the halogenated stilbenes of the present disclosure can also be dissolved in other solvents such as PEG400 and cyclodextran.

Tolerability in mice = assay type: in vivo
Experimental: Therefore, as shown in this example, the halogenated stilbene analogs of the present disclosure are capable of inhibiting CRC both in vitro and in vivo. In another study, it was shown that mice could tolerate at least 200 mg/kg of a halogenated stilbene analog, FlDAS 4dd.

MAT2A [2] = biological target: T1, MAT2A (Homo sapiens, UniProt P31153); test: Cell based SAM and SAH analysis in LS174 colon cancer cells (LC-MS/MS); parameters: endogenous in cells; host or cells: LS174T; conditions: 3 μM of 4dd versus 10 uM of 4r and 30 uM of resveratrol
Experimental: (§3) SAM and SAH analysis by LC-MS/MS. The LC-MS/MS system consisted of two Varian ProStar 210 LC Pumps coupled with a Varian 1200L triple quadrupole mass spectrometer. The separation was performed on a Hypercarb column (50 mm×2.1 mm, […], Thermo Scientific #35003-052130). Gradient elution started with 98% solution A (0.1% formic acid in water), followed by an increase to 38% solution B (0.1% formic acid in acetonitrile) in 8 min. The column was than flushed with 90% B for 5 min and regenerated with 98% A for another 8 min. The flow rate was 0.25 mL/min. Between the 3rd and 11th min, the eluent was switched to the ion source of the mass spectrometer. The precursor product transitions for SAM (m/z 399→250), SAH (m/z 385→250) and [d-4]-SAH (m/z 389→136) were monitored. The optimized ion source parameters were: Capillary Voltage: 32 V for both SAM and SAH, Collision energy: 9 V and 7V for SAM and SAH, respectively, Needle voltage: 5000 V and the Shield voltage: 600V. Nitrogen was used as the drying gas at a temperature of 300° C. and the interface heater was set to 50° C. The drying gas and nebulizing gas were set to 20 and 50 psi, respectively.
Cell based SAM analysis. […] 5 ul of supernatants were analyzed by LC-MS/MS using a modified method based on a previous publication (see Krijt et al., J Chromatogr B Analyt Technol Biomed Life Sci 877, 2061-6, (2009)). […]

LS174 CRC cells = test: CRC cell proliferation assay (Vi-Cell); assay type: cell-based
Experimental: Luciferase and cell proliferation assay. HEK293T cells were transiently transfected in a 12-well plate with 0.2 μg of the Super8xTOPFlash reporter and 0.05 μg of Renilla luciferase reporter. Culture medium was changed after 12 h. After 6 h, cells were treated with DMSO or Wnt inhibitors for 12 h, and then treated with 25 mM LiCl or Wnt conditioned medium. After 12 h, cells were harvested and luciferase activity measured by Dual-luciferase Reporter Assay System (Promega, Madison Wis.). All conditions were done in triplicate and each experiment was carried out at least two times. For cell proliferation assay, CRC cells were treated with DMSO or inhibitors for 2d and 4d. The cell numbers and viability were analyzed by Vi-Cell Cell Viability Analyzer.
as §2

liver cancer cells = test: Liver cancer cell proliferation; assay type: cell-based; conditions: FIG. 15
Experimental: as §2
As previously shown, several metabolites of the halogenated stilbenes of the present disclosure were synthesized (Example 2 and FIG. 3). In this study, the effects of some of these metabolites on cell proliferation were studied.

MAT2A [3] = biological target: T1, MAT2A; test: In-vitro SAM synthesis by MAT2A (LC-MS/MS); assay type: biochemical; parameters: GST (N); made in house
Experimental: as §3
SAM synthesis. […] purified MAT2A was incubated with 1 mM L-methionine and 1 mM ATP in […] reaction solution (50 mM Tris.Cl, 50 mM KCl, 10 mM MgCl2) for 5 min at 25° C. […] SAM was analyzed by LC-MS/MS. […]

β-catenin target genes = test: RT-PCR of β-catenin target genes in LS174 cells; assay type: cell-based; conditions: LS174 cells
Experimental: RT-PCR. LS174 cells were treated with DMSO or Wnt inhibitors. After 36 h, RNA was isolated using the RNeasy kit (Qiagen). RT-PCR was performed as described in Zhang et al., Mol Cell Biol 2006, 26, 2055-2064. The following primers were used: β-actin: 5′-CAACCGCGAGAAGATGAC-3′ (SEQ ID NO:01), 5′-AGGAAGGCTGGAAGAGTG-3′ (SEQ ID NO:02); surivivin: 5′-[…]-3′ (SEQ ID NO:03), 5′-[…]-3′ (SEQ ID NO:04); c-Myc: 5′-TGGGCTGTGAGGAGGTTTG-3′ (SEQ ID NO:05), 5′-TATGTGGAGCGGCTTCTCG-3′ (SEQ ID NO:06); Axin2: 5′-[…]-3′ (SEQ ID NO:07), 5′-[…]-3′ (SEQ ID NO:08); TCF4: 5′-[…]-3′ (SEQ ID NO:09), 5′-[…]-3′ (SEQ ID NO:10); pygopus2: 5′-GGCCGGTCTGCAAATGAAG-3′ (SEQ ID NO:11), 5′-TCCACCTCCAGTGCTGTAG-3′ (SEQ ID NO:12); Lgr5: 5′-[…]-3′ (SEQ ID NO:13), 5′-[…]-3′ (SEQ ID NO:14); CD44: 5′-[…]-3′ (SEQ ID NO:15), 5′-[…]-3′ (SEQ ID NO:16); Ki67: 5′-[…]-3′ (SEQ ID NO:17), 5′-[…]-3′ (SEQ ID NO:18).
as §1

Wnt signaling = test: TopFlash luciferase reporter assay in HEK293T cells; assay type: cell-based; conditions: HEK293T
Experimental: Luciferase and cell proliferation assay. HEK293T cells were transiently transfected in a 12-well plate with 0.2 μg of the Super8xTOPFlash reporter and 0.05 μg of Renilla luciferase reporter. Culture medium was changed after 12 h. After 6 h, cells were treated with DMSO or Wnt inhibitors for 12 h, and then treated with 25 mM LiCl or Wnt conditioned medium. After 12 h, cells were harvested and luciferase activity measured by Dual-luciferase Reporter Assay System (Promega, Madison Wis.). All conditions were done in triplicate and each experiment was carried out at least two times. For cell proliferation assay, CRC cells were treated with DMSO or inhibitors for 2d and 4d. The cell numbers and viability were analyzed by Vi-Cell Cell Viability Analyzer. To identify Wnt pathway inhibitors for CRC prevention and treatment, a number of anti-cancer agents from plants were screened using the TopFlash reporter assay. The TopFlash reporter was transfected into HEK293T cells, and the cells were treated with Wnt3A-conditioned medium in order to activate the luciferase reporter. […] To determine if resveratrol regulates β-catenin degradation, the cells were treated with 25 mM LiCl, which inhibits GSK-3 and stabilizes β-catenin. In this assay, LiCl activated the reporter more strongly than Wnt3A conditioned medium. […] Emodin is an anti-cancer agent from plants; it exists in many unpurified resveratrol products. Emodin had no effect on Wnt signaling. See Zhang et al., J. of Med. Chem. 54, 1288-1297 (2011).

Which solubility (Solubility) does the source give for `CN(C)c1ccc(/C=C/c2ccccc2)cc1` [4d, (E)-4-styryl-N,N-dimethylaniline, reference compound] here?
Its solubility is “poor”.

What about the “repression of Wnt target genes at 30 μM” value ([1]; 30 μM, CRC cells) of the same compound?
The value was “strongly repressed”.

And the “Wnt inhibitory activity in Western blot, qualitative or relative to a comparator” value ([1]; CRC cells)?
Its value is “more active than 4-methoxystilbene (4b)”.

What about the “effectiveness on Wnt target genes below 10 μM” value ([1]; below 10 μM concentrations (data not shown)) of the same compound?
The value was “not effective”.

For `CNc1ccc(/C=C/c2c(F)cccc2Cl)cc1` [4dd, (E)-4-(2-chloro-6-fluorostyryl)-N-methylaniline], which “effect on body weight” value (HT29 xenografted tumors) is on record?
The value was “without any adverse effect”.

And the “growth of xenografted tumors” value (HT29 xenografted tumors)?
The value was “significantly inhibits”.

And the tolerated dose (Tolerability in mice)?
The tolerated dose was “at least 200 mg/kg”.

And the body weights (Tolerability in mice; 200 mg/kg (data not shown))?
Its body weights is “reduced after one week but were recovered to normal weight after stopping 4dd treatment”.

What about the “inhibition of MAT2A and reduction of SAM and SAH” value (MAT2A [2]) of the same compound?
Its value is “even more potent than 4r”.

What about the “colon cancer cell proliferation, effectiveness versus resveratrol and 4r” value (LS174 CRC cells; FIG. 14) of the same compound?
Its value is “significantly more effective than resveratrol, as well as compound 4r”.

And the “liver cancer cell proliferation, effectiveness versus resveratrol and 4r” value (liver cancer cells)?
Its value is “significantly more effective than resveratrol, as well as compound 4r”.

Which results are given for `Oc1ccc(/C=C/c2cc(O)cc(O)c2)cc1` [resveratrol, trans- or (E)-3,5,4′-trihydroxystilbene, reference compound]?
LS174 cell proliferation (LS174 CRC cells; treated for 2d and 4d): inhibited cell proliferation; MAT2A activity in SAM synthesis (MAT2A [3]): inhibit MAT2A activity; cell proliferation marker Ki67 mRNA (β-catenin target genes): also decreased; mRNA expression of survivin, Lgr5, CD44, and c-Myc (β-catenin target genes): decreased; protein levels of TCF4 and pygopus2 ([1]; CRC cells): reduced; β-catenin levels ([1]; CRC cells): not affected; Cyclin B1 levels ([1]; LS174 CRC cells): decreased; p21WAF1/CIP1 levels ([1]; LS174 CRC cells): increased; protein levels of c-Myc and Cyclin D1 ([1]; LS174 CRC cells): reduced; protein levels of Wnt/β-catenin targets at 100 μM ([1]; LS174 cells, 100 μM): reduced the protein levels; LiCl-induced Wnt signaling (Wnt signaling; 25 mM LiCl): strongly inhibited; Wnt-induced luciferase activity (Wnt signaling; Wnt3A-conditioned medium, 100 μM): significantly inhibited
